Assay results as given in patent US20190292546A1, “TLR3 AGONIST FOR USE FOR INDUCING APOPTOSIS IN SENESCENT CANCER CELLS” (Centre Léon-Bérard, priority 2016, published 2019).
“Also recorded” adds a separate entry of the source.

What was measured:
[1] = test system: NCI-H292 human Non-Small-Cell Cancer Cells; test: Senescence status of Paclitaxel-Treated Cells (phase-contrast morphology, SA-β-GAL, IL-8); assay type: cell-based; conditions: 4 nM paclitaxel
Procedure: (§1) NCI-H292 human Non-Small-Cell Cancer Cells were plated at 5000 cells/cm^2 in a 6-well plate in RPMI supplemented with 10% FCS and 1% Hepes/1% NAPy/PS. They were treated after 16-24 hours of plating and for 7 to 10 days with 4 nM paclitaxel (Sigma) or with DMSO (“solvent”), with a change of medium on day 4. The following tests were then performed to ascertain the Paclitaxel-Treated Cells' senescence status.
(§2) 1) An inverted phase-contrast light microscope was used at 40× magnification to evaluate morphology of the Paclitaxel-Treated Cells. […] 2) The senescence-associated β-galactosidase [SA-β-GAL] activity was measured in the Paclitaxel-Treated Cells described above using the Senescence beta-galactosidase Staining Kit (Cell Signaling Technology) (FIG. 2). 3) The secretion of IL-8 as part of the senescence-associated secretome (Tchkonia et al., 2013; J Clin Invest. 123(3):966-72) was quantified in the culture supernatant of the Paclitaxel-Treated Cells using an ELISA kit (Biolegend Kit hulL8), and read on a TECAN microplate reader).

[2] = test system: NCI-H292 human Non-Small-Cell Cancer Cells; test: IL-8 secretion in culture supernatant by ELISA; assay type: cell-based; conditions: 4 nM paclitaxel, 1, 3 or 7 days, last 24H of culture, FIG. 3
Procedure: NCI-H292 human Non-Small-Cell Cancer Cells were plated at 5000 cells/cm^2 in a 6-well plate in RPMI supplemented with 10% FCS and 1% Hepes/1% NAPy/PS. […] The following tests were then performed to ascertain the Paclitaxel-Treated Cells' senescence status.
as §2

NCI-H292 cells = test: TLR3 expression by intracellular staining and flow cytometry; assay type: cell-based, human; conditions: 7 days of culture with paclitaxel 4 nM, anti-TLR3.1 antibody, FIG. 4
Procedure: To ascertain that TLR3 expression was not lost upon senescence, Paclitaxel-Treated Cells were harvested, fixed and permeabilized with the Cytoperm/Cytofix kit (Becton Dickinson), then stained at 4° C. for TLR3 (anti-TLR3.1 antibody (Dendritics)+goat anti-mouse Alexa 647) and analyzed on a Becton Disckison FACSCalibur flow cytometer.

[3] = test system: TLR3 WT and TLR3 KO NCI-H292 untreated or Paclitaxel-Treated Cells; test: TLR3-triggered apoptosis (Annexin V-FITC/PI flow cytometry) in Paclitaxel-Treated Cells; assay type: cell-based, human; conditions: 4 μg/ml Poly(I:C), 24 hours, paclitaxel-induced senescent vs untreated NCI-H292, FIG. 5
Procedure: as §1
TLR3 WT and TLR3 KO NCI-H292 untreated or Paclitaxel-Treated Cells were incubated for 24 hours with 4 μg/ml Poly(I:C) (Invivogen), then cells were stained at 4° C. with Annexin V-FITC and PI (Biolegend) and analyzed on a Becton Disckison FACSCalibur flow cytometer.

[4] = test system: Untreated or Radiation-Induced Senescent WT and TLR3 KO NCI-H292 Cells; test: TLR3-triggered apoptosis (Annexin V-FITC PI flow cytometry) in Radiation-Induced Senescent Cells; assay type: cell-based, human; conditions: 10 μg/ml Poly(I:C), 24 hours, senescence by 8 Grey irradiation vs untreated NCI-H292, FIG. 6
Procedure: NCI-H292 human Non-Small-Cell Cancer Cells were plated at 5000 cells/cm^2 in a 6-well plate in RPMI supplemented with 10% FCS and 1% Hepes/1% NAPy/PS. They were irradiated with 8 Grey 16 hours after plating, and the medium was changed right after irradiation.
(§3) Radiation-Induced Senescent Cells' susceptibility to TLR3-triggered apoptosis was measured. Untreated or Radiation-Induced Senescent WT and TLR3 KO NCI-H292 Cells were incubated for 24 hours with 10 μg/ml Poly(I:C) (Invivogen), then cells were stained at 4° C. with Annexin V-FITC PI (Biolegend) and analyzed on a Becton Disckison FACSCalibur flow cytometer.

[5] = test system: Untreated or Oxidative Stress-induced Senescent WT and TLR3 KO NCI-H292 Cells; test: TLR3-triggered apoptosis (Annexin V-FITC flow cytometry) in Oxidative Stress-induced Senescent Cells; assay type: cell-based, human; conditions: 10 μg/ml Poly(I:C), 24 hours, senescence by 300 μM H2O2 vs untreated NCI-H292, FIG. 7
Procedure: NCI-H292 human Non-Small-Cell Cancer Cells were plated at 5000 cells/cm^2 in a 6-well plate in RPMI supplemented with 10% FCS and 1% Hepes/1% NAPy/PS. They were treated with 300 μM H2O2 16 hours after plating, and the medium was changed 1 hour after H2O2 treatment.
as §3, with “Oxidative Stress-induced” for “Radiation-Induced”, “V-FITC” for “V-FITC PI”

## CC(=O)O[C@H]1C(=O)[C@@]2(C)[C@H]([C@H](OC(=O)c3ccccc3)[C@]3(O)C[C@H](OC(=O)[C@H](O)[C@@H](NC(=O)c4ccccc4)c4ccccc4)C(C)=C1C3(C)C)[C@]1(OC(C)=O)CO[C@@H]1C[C@@H]2O [Paclitaxel, paclitaxel]
[1]; 7 to 10 days, NCI-H292, phase-contrast microscopy 40x, FIG. 1
  morphology of the Paclitaxel-Treated Cells (observed changes): a stop in cell division and enlargement in size
[1]; NCI-H292, FIGS. 1-3
  senescence status of the cells: have become senescent
[2]
  secretion of IL-8 in the culture supernatant: Large amounts of IL-8
NCI-H292 cells
  expression of TLR3 by NCI-H292 cells: increased

## Polyinosine-polycytidylic acid [Poly(I:C)]
[3]
  susceptibility to TLR3-triggered apoptosis: more sensitive to TLR3-triggered apoptosis
[4]
  susceptibility to TLR3-triggered apoptosis: induces apoptosis; also recorded: more sensitive to TLR3-triggered apoptosis
[5]
  susceptibility to TLR3-triggered apoptosis: induces apoptosis; also recorded: more sensitive to TLR3-triggered apoptosis
